For one data set, the target named is T1, Fn14 (Homo sapiens, UniProt Q9NP84).
T1 construct: the human Fc fragment-tagged Fn14 extracellular domain (R&D Systems) was captured
T1 sequence (Q9NP84 28-80 limits assumed): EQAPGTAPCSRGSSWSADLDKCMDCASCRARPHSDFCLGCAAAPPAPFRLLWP
The experiment in a line: Surface Plasmon Resonance assay, Fn14-Fc sensor surface. It counts as binding. As to conditions: Fn14 surface, SPR, 25 degrees Celsius. On the procedure:
Surface Plasmon Resonance (SPR) Assay. The binding affinity of at least one of the compounds (e.g., L524-0366) to TWEAK and Fn14-Fx was determined using a BIAcore T100 optical biosensor (GE Healthcare) at 25 degrees Celsius at the Arizona Proteomics Consortium. Recombinant human TWEAK (20 μg/mL in 10 mM HEPES pH 7.4, 150 mM NaCl, 3 mM EDTA, 0.05% Tween 20) or recombinant human Fn14-Fc (20 μg/mL in 10 mM NaOAc pH 4.0) were covalently coupled to separate flow cells on a BIAcore CM5 sensor chip using standard amine coupling chemistry as per manufacturer's protocol. Final immobilization levels were 6000 Response Units (RU) for TWEAK and 13,000 RU for FN14-Fc. The first flow path of the chip was treated with the same coupling and blocking reagents without protein and was used as a reference for each binding cycle. Functionality of the TWEAK and the Fn14-Fc sensor surfaces were verified by injecting Fn14-Fc and TWEAK over them respectively. Serial dilutions of L524-0366 or cycloheximide (control) from 0 to 50 μM were made in running buffer (10 mM HEPES pH 7.4, 150 mM NaCl, 3 mM EDTA, 1% DMSO). […] Equilibrium dissociation constants for the small molecules were calculated by fitting the double reference subtracted data to Req=((CRmax)/(KD+C))+RI, where RI is the bulk refractive index contribution.

A further data set has as its system T98G glioma cells. Nature of the data set: Cytotoxicity assay, CellTiter-Glo. It counts as cell-based, human. As to conditions: up to 50 μM, 72 hr. The procedure: Cytotoxicity Assay. Cytotoxic effects of drugs on glioma cells were analyzed by quantifying the ATP, an indicator of metabolically active cells. Briefly, glioma cells were seeded in tissue culture treated white 96-well plates at 3×10^3 cells/well in 80 μL Opti-MEM media (Invitrogen) and incubated for 24 hr at 37° C. After 24 hr incubation, 20 μL of 5× drug solution at required concentration in Opti-MEM was added to each well and incubated for 72 hr at 37° C. Opti-MEM/DMSO mixture without drug was used as negative control and 20 μM staurosporine was used as positive control. At the end of 72 hr incubation, the number of viable cells were quantified by using CellTiter-Glo assay kit (Promega, Madison, Wis.) according to the manufacturer's instructions. Luminescence signal measured was normalized to negative control to determine % cell viability.
For orientation: In ATP-based viability assays light output follows the ATP content of the culture.

A further data set deals with TWEAK-Fn14 signaling. Nature of the data set: Cell based NF-κB luciferase reporter assay, Fn14-NF-κB-Luc cells stimulated with TWEAK. More on the design: species or system human. On the procedure:
NF-κB luciferase reporter Assay. The capacity of sTWEAK or sTWEAK variants to activate Fn14 signaling was evaluated using engineered reporter cell lines that express luciferase upon NF-κB activation. Two reporter cell lines were utilized for these experiments. HEK293 NF-κB luciferase (courtesy of Dr. Jeff Winkles) were generated by transfecting HEK293 cells with a reporter plasmid containing 5 copies of a consensus NF-κB binding site upstream of a minimal CMV promoter driving expression of firefly luciferase. The second cell line, designated HEK293 NF-κB luciferase Fn14 FL, was generated by stably transfecting the HEK293 NF-κB luciferase cell line with full length Fn14. To assay the binding of sTWEAK or sTWEAK variants to Fn14, reporter cells were seeded in tissue culture treated white 96-well plates at 1×10^4 cells/well in 80 μL Opti-MEM media (Invitrogen) and incubated for 48 hr at 37° C. After 48 hr incubation, 20 μL of 5× purified recombinant TWEAK (Peprotech Inc.; 150 ng/mL) in 1 mg/mL BSA in PBS was added to each well and incubated for 5 hr at 37° C. as positive control. Similarly, equivalent amounts of sTWEAK or sTWEAK variant prepared via IVTTas determined using ELISA assay described above was added in 20 μl. IVTT solution lacking a cDNA template in 1 mg/mL BSA in PBS and 1 mg/mL BSA in PBS alone was used as an additional control. At the end of 5 hr incubation, the luminescent signal was determined using Bright-Glo assay kit (Promega, Madison, Wis.) according to the manufacturer's instructions.
Briefly, Fn14-NF-κB-Luc reporter cells, (Fn14 overexpressing HEK293 NF-κB luciferase cells), were seeded in tissue culture treated white 96-well plates at 1×10^4 cells/well in 80 μL Opti-MEM media (Invitrogen) and incubated for 48 hr at 37° C. […] Luminescent signal was determined using Bright-Glo assay kit (Promega, Madison, Wis.) according to the manufacturer's instructions and normalized to negative control. […] IC50 values for dose response curve were determined using the curve fitting functionality of GraphPad Prism software.
For orientation: A reporter such as luciferase makes a cellular process visible.

The subject of data set [1] is TNFα-induced NF-κB activity. Nature of the data set: Counter-screen NF-κB luciferase assay, NF-κB-Luc reporter cells stimulated with TNFα. Type of data set: cell-based, human. The procedure: Briefly, Fn14-NF-κB-Luc reporter cells, (Fn14 overexpressing HEK293 NF-κB luciferase cells), were seeded in tissue culture treated white 96-well plates at 1×10^4 cells/well in 80 μL Opti-MEM media (Invitrogen) and incubated for 48 hr at 37° C. After 48 hr incubation, 10 μL of the drug solution (200 μM) in DMSO was added to the designated wells at a final concentration of 20 μM. After 1 hr of drug incubation at 37° C., 10 μL of 10× purified recombinant TWEAK (Peprotech Inc.; 300 ng/mL) in 1 mg/mL BSA in PBS was added to each well and incubated for 5 hr at 37° C. DMSO alone was used as a negative control whereas anti-TWEAK antibody suspended in DMSO was used as a positive control for the assay. Luminescent signal was determined using Bright-Glo assay kit (Promega, Madison, Wis.) according to the manufacturer's instructions and normalized to negative control. A counter-screen assay was carried out using TNFα to stimulate NF-κB activity in NF-κB-Luc reporter cells (HEK293 NF-κB luciferase cells). The counter-screen assay was performed similar to the drug screening assay described above, except 10 μL of 10× purified recombinant TNFα (R&D Scientific; 300 ng/mL) in 1 mg/mL BSA in PBS was added to each well instead of TWEAK for NF-κB activation. […] IC50 values for dose response curve were determined using the curve fitting functionality of GraphPad Prism software.
(In general: Counterscreens check selectivity or assay interference.)

Each structure is given as a SMILES string.

By Kd is commonly meant the concentration at which binding is half-saturated. The term IC50 denotes the concentration that inhibits the measured activity by half.

As to `O=C(c1cn(-c2cccc(Cl)c2)nn1)N1CCSCC1` [Compound L524-0366], at Fn14, the dissociation constant Kd was 7.12 µM. Also, the cytotoxicity entry in the data set on T98G glioma cells is recorded as “did not demonstrate any cytotoxicity”. Moreover, the “inhibition of TWEAK-induced NF-κB driven luciferase activity” value with TWEAK-Fn14 signaling (Fn14-NF-κB-Luc cells, 20 μM) was “significant inhibition”. The IC50 with TWEAK-Fn14 signaling (Homo sapiens, Fn14-NF-κB-Luc cells stimulated with TWEAK, 0.75 μM to 250 μM, read-out: IC50, TWEAK-Fn14 stimulated luciferase induction) was 7.8 µM; in data set [1] (Homo sapiens, NF-κB-Luc cells stimulated with TNFα, 0.75 μM to 250 μM, read-out: IC50, TNFα stimulated luciferase induction), 31 µM. The “fold higher inhibitory activity against TWEAK-Fn14 signaling” value in the data set on TWEAK-Fn14 signaling (TWEAK/Fn14-NF-κB-Luc versus TNFα/NF-κB-Luc IC50) was “approximately 5 fold”. The “inhibition of TNFα-induced NF-κB driven luciferase activity” value in data set [1] (NF-κB-Luc cells, 20 μM) is given as “only minor inhibition”.
